# In US7087623B2, “Thiazole and other heterocyclic ligands for mammalian dopamine, muscarinic and serotonin receptors and transporters, and methods of use thereof” (Sepracor Inc., priority 2001, dated 2006):
# Read-outs that look alike come from different tables or passages of the source.
# What was measured:
# [1] = target: T1, human serotonin 5-HT2C receptor (Homo sapiens, UniProt P28335); experiment: Radioligand binding assay, human 5-HT2C receptors ([3H]Mesulergine)
# T1 construct: expressed in transfected cells; host or cells: CHO-K1
# T1 sequence (P28335 33-458): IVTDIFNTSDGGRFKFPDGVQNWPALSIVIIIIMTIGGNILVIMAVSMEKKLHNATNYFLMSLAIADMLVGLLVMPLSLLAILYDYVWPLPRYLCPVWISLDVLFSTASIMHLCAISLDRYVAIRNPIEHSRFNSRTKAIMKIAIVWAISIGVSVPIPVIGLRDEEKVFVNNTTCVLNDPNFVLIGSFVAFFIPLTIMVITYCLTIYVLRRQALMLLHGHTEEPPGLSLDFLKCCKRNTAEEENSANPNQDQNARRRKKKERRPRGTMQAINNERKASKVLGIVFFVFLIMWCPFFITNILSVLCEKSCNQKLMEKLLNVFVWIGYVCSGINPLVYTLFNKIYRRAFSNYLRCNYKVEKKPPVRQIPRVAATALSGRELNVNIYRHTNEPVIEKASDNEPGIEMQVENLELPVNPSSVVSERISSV
# Method in brief: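 Membranes from CHO-K1 cells stably expressing human 5-HT2C receptor were prepared in modified Tris-HCl pH 7.7 buffer. Non-specific binding was defined with 1 μM mianserin.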
# [2] = target: T2, human serotonin 5-HT6 receptor (Homo sapiens, UniProt P50406); experiment: Radioligand binding assay, human 5-HT6 receptors ([3H]LSD)
# T2 construct: expressed in transfected cells; host or cells: HeLa/E6-7
# Method in brief: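 Membranes from HeLa/E6–7 cells stably expressing human 5-HT6, in modified Tris-HCl pH 7.4, incubated (30 μg) with 1.5 nM [3H]LSD for 120 min at 37° C. Non-specific binding defined with 5 μM 5-HT; bound ligand measured by filtration and counting.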
# [3] = target: T3, human serotonin 5-HT2A receptor (Homo sapiens, UniProt P28223); experiment: Radioligand binding assay, human 5-HT2A receptors ([3H]Ketanserin)
# T3 construct: expressed in transfected cells; host or cells: CHO-K1
# [4] = human, Example 100 table, read-out: IC50 (nM) 5-HT2C
# [5] = human, Example 100 table, read-out: IC50 (nM) 5-HT6
# [6] = human, Example 100 table, read-out: IC50 (nM) 5-HT2A
# [7] = human 5-HT2c, Example 16 table, read-out: IC50 (nM) 5-HT2c
# [8] = human 5-HT6, Example 16 table, read-out: IC50 (nM) 5-HT6
# [9] = human 5-HT2a, Example 16 table, read-out: IC50 (nM) 5-HT2a
# T2 sequence (P50406 whole entry): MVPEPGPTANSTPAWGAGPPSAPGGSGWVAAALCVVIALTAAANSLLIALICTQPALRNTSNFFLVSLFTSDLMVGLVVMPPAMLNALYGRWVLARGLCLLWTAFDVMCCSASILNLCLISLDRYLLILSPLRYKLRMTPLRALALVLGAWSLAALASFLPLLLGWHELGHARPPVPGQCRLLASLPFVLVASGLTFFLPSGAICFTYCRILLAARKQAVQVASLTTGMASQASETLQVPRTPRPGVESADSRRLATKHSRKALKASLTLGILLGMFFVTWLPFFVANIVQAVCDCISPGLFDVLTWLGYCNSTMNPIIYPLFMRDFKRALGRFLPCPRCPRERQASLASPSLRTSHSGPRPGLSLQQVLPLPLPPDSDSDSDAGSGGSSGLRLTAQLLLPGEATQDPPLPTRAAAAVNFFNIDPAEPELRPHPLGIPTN
# T3 sequence (P28223 whole entry): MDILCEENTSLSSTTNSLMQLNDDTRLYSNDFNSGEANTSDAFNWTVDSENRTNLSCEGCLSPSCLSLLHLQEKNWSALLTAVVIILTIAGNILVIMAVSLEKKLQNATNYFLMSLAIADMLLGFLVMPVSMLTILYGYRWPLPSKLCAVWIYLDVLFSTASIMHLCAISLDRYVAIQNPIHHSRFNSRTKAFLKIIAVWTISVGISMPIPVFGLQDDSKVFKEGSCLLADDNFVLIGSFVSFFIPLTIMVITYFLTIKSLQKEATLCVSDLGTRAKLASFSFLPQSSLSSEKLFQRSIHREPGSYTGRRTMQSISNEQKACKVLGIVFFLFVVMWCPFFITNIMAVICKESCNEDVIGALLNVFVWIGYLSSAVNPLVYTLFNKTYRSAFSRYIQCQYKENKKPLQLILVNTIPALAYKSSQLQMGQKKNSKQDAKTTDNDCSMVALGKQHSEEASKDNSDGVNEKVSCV
"IC50 [2, 5] [nM]",Structure (SMILES),"IC50 [1, 7] [nM]","IC50 [2, 8] [nM]","IC50 [3, 9] [nM]",also measured
< 100,"CN1CCCC1CCNc1nc(C2(c3ccccc3F)CCCCC2)cs1 (racemic) [Compound 128, {4-[1-(2-fluorophenyl)-cyclohexyl]-thiazol-2-yl}-[2-(1-methyl-pyrrolidin-2-yl)-ethyl]-amine]",,,,"IC50 [1, 4]: < 10 nM; IC50 [3, 6]: < 100 nM"
< 100,"CN1CCCC1CCNc1nc(C2(c3ccccc3F)CCCCC2)cs1 (single isomer, unassigned) [Compound 130, {4-[1-(2-fluorophenyl)-cyclohexyl]-thiazol-2-yl}-[2-(1-methyl-pyrrolidin-2-yl)-ethyl]-amine]",,,,"IC50 [1, 4]: < 10 nM; IC50 [3, 6]: < 100 nM"
,CN1CCN(c2nc(C3(c4csc5ccc(Cl)cc45)CCOCC3)cs2)CC1 [Compound 36],< 1000,< 100,> 1000,
,Clc1ccc(C2(c3csc(N4CCNCC4)n3)CCOCC2)cc1 [Compound 37],< 1000,< 100,< 1000,
,CN1CCN(c2nc(C3(c4ccccc4)CCOCC3)cs2)CC1 [Compound 59],,,,"IC50 ([1]; IC50 (nM) 5-HT2c, human 5-HT2c, Example 16 table): > 1000 nM; IC50 ([2]; IC50 (nM) 5-HT6, human 5-HT6, Example 16 table): < 100 nM; IC50 ([3]; IC50 (nM) 5-HT2a, human 5-HT2a, Example 16 table): > 1000 nM"
,CN1CCN(c2nc(C3(c4cccc(Cl)c4)CCOCC3)cs2)CC1 [Compound 63],< 1000,< 100,> 1000,
,CN1CCN(c2nc(C3(c4ccccc4F)CCCCC3)cs2)CC1 [Compound 83],< 100,< 100,> 1000,
,CN1CCN(c2nc(C3(c4ccccc4F)CCCC3)cs2)CC1 [Compound 93],< 100,< 100,< 1000,

Structure (SMILES),"IC50 [2, 5] [nM]","IC50 [1, 7] [nM]","IC50 [2, 8] [nM]","IC50 [3, 9] [nM]",also measured
CN1CCN(c2nc(C3(c4ccccc4F)CCOCC3)cs2)CC1 [Compound 112],< 100,,,,
